The values below come from patent US11130741B2 (Bioimics AB, priority 2016, dated 2021).

SMILES strings stand for the structures. Read-outs that look alike come from different tables or passages of the source. Some results are limits rather than exact numbers.

Experiment [1] concerns Staphylococcus aureus subsp. aureus (ATCC29213). The experiment in a line: MIC, broth microdilution (CLSI), Staphylococcus aureus subsp. aureus ATCC29213. The format is cell-based. Particulars: ATCC29213, Table 15, read-out: S. aureus ("wound") (MIC). In general terms: Broth dilution looks for growth in wells or tubes with falling amounts of substance.
For experiment [2], the system named is Escherichia coli (ATCC25922). As to the kind of experiment: MIC, broth microdilution (CLSI), Escherichia coli ATCC25922.
Experimental: Initial minimal inhibitory concentration (MIC) tests were made on two bacterial strains: • Escherichia coli (ATCC25922) • Staphylococcus aureus (ATCC25923).
Minimal Inhibitory Concentration (MIC)
MIC values were determined using the standard broth microdilution procedure based on the guidelines by the Clinical and Laboratory Standards Institute (CLSI). Briefly, the compounds were dissolved in DMSO to 10 mM. They were diluted in cation-adjusted Mueller-Hinton broth (CAMHB) to four times the highest concentration tested. A serial 2-fold dilution in CAMHB was done in microdilution plates. The inoculum of bacterial strain to be tested was prepared by making a suspension of colonies from an 18 to 24 hours old plate in CAMHB. The inoculum was diluted so that, after inoculation, each well contained approximately 5×10^5 CFU/mL. To a volume of 50 μl compound in CAMHB an equal volume of inoculum was added. The tray was sealed in a plastic bag and incubated at 35° C. for 16 to 20 hours. To aid in the detection of growth the dye resazurin was added to a final concentration 0.001% and incubated at room temperature for 1 h. Reduction of resazurin, and therefore bacterial growth, was seen as a change from blue to pink.
Setting [3] is: ATCC25922, read-out: E. coli MIC, Table 15, NI = No inhibition.
Setting [4] is: ATCC25922, read-out: E. coli MIC.

What is called MIC is the lowest concentration that inhibits growth of the organism. For the compound `CC1CCCN(c2ccc3c(c2)Sc2cc(C(F)(F)F)cc(NC(=O)C4CCCC(N)C4)c2N3)C1.Cl.Cl` (stereo not drawn) [compound 313, 3-amino-N-(7-(3-methyl-piperidin-1-yl)-3-(trifluoromethyl)-10H-phenothiazin-1-yl)cyclohexane-1-carboxamide hydrochloride], the MIC in experiment [1] is 16 µg/mL; in experiment [2] (setting [3]), greater than 128 µg/mL.

With `CC1CCCN1c1ccc2c(c1)Sc1cc(C(F)(F)F)cc(NC3CCN(CCN)CC3)c1N2.Cl.Cl` (stereo not drawn) [compound 316, N-(1-(2-aminoethyl)piperidin-4-yl)-7-(2-methyl-pyrrolidin-1-yl)-3-(trifluoromethyl)-10H-phenothiazin-1-amine hydrochloride], the MIC was 2 µg/mL in experiment [1] and 8 µg/mL in experiment [2] (setting [3]).

As to `Cl.Cl.Cl.NCCNCC(=O)CNc1cc(C(F)(F)F)cc2c1Nc1ccc(N3CCCC3)cc1S2` [compound 317, 1-((2-aminoethyl)amino)-3-((7-(pyrrolidin-1-yl)-3-(trifluoromethyl)-10H-phenothiazin-1-yl)amino) propan-2-one hydrochloride], the MIC in experiment [1] was found to be 64 µg/mL; in experiment [2] (setting [3]), 128 µg/mL.

Regarding `Cl.NCCN1CCC(Nc2cc(C(F)(F)F)cc3c2Nc2ccc(N4CCCC(F)C4)cc2S3)CC1` (stereo not drawn) [compound 318, N-(1-(2-aminoethyl)piperidin-4-yl)-7-(3-fluoro-piperidin-1-yl)-3-(trifluoromethyl)-10H-phenothiazin-1-amine hydrochloride], the results for the MIC in experiment [1] and in experiment [2] (setting [3]) were 8 µg/mL and 16 µg/mL, respectively.

On to `Cl.FC(F)(F)c1cc(NC2CCN(CCN3CCNCC3)CC2)c2c(c1)Sc1cc(Br)ccc1N2` [compound 319, 7-bromo-N-(1-(2-(piperazin-1-yl)ethyl)piperidin-4-yl)-3-(trifluoromethyl)-10H-phenothiazin-1-amine hydrochloride], for which the MIC in experiment [1] and in experiment [2] (setting [3]) was 8 µg/mL throughout.

In the case of `CC(C)C1CCCN(c2ccc3c(c2)Sc2cc(C(F)(F)F)cc(NC4CCN(CCN)CC4)c2N3)C1.Cl.Cl.Cl` (stereo not drawn) [compound 320, N-(1-(2-aminoethyl)piperidin-4-yl)-7-(3-isopropyl-piperidin-1-yl)-3-(trifluoromethyl)-10H-phenothiazin-1-amine hydrochloride], the MIC is 4 µg/mL in experiment [1] and 32 µg/mL in experiment [2] (setting [3]).

For the compound `COC1CCN(c2ccc3c(c2)Sc2cc(C(F)(F)F)cc(NC4CCN(CCN)CC4)c2N3)C1.Cl.Cl` (stereo not drawn) [compound 321, N-(1-(2-aminoethyl)piperidin-4-yl)-7-(3-methoxy-pyrrolidin-1-yl)-3-(trifluoromethyl)-10H-phenothiazin-1-amine hydrochloride], the MIC in experiment [1] came to 8 µg/mL; in experiment [2] (setting [3]) it was 32 µg/mL.

Turning to `Cl.Cl.NCCN1CCC(Nc2cc(C(F)(F)F)cc3c2Nc2ccc(N4CCC5(CCCC5)C4)cc2S3)CC1` [compound 322, N-(1-(2-aminoethyl)piperidin-4-yl)-7-(2-azaspiro [4.4]nonan-2-yl)-3-(trifluoromethyl)-10H-phenothiazin-1-amine hydrochloride], the MIC in experiment [1] is 1 µg/mL; in experiment [2] (setting [3]) it was 4 µg/mL.

With `CN(C)CCNCC(=O)CNc1cc(C(F)(F)F)cc2c1Nc1ccc(N3CCCC3)cc1S2.Cl.Cl` [compound 323, 1-((2-(dimethyl-amino)ethyl)amino)-3-((7-(pyrrolidin-1-yl)-3-(trifluoromethyl)-10H-phenothiazin-1-yl)amino) propan-2-one hydrochloride], the MIC in experiment [1] was 128 µg/mL; in experiment [2] (setting [4]) it was greater than 128 µg/mL.

On to `Cl.NCCCNc1cc(C(F)(F)F)cc2c1Nc1ccc(N3CCCC3)cc1S2` [compound 324, N1-(7-(pyrrolidin-1-yl)-3-(trifluoromethyl)-10H-phenothiazin-1-yl)propane-1,3-diamine hydrochloride], for which the MIC in experiment [1] is 4 µg/mL; in experiment [2] (setting [3]), 32 µg/mL.

For `COC1CCCN(c2ccc3c(c2)Sc2cc(C(F)(F)F)cc(NC4CCN(CCN)CC4)c2N3)C1.Cl` (stereo not drawn) [compound 326, N-(1-(2-aminoethyl)piperidin-4-yl)-7-(3-methoxy-piperidin-1-yl)-3-(trifluoromethyl)-10H-phenothiazin-1-amine hydrochloride], the MIC in experiment [1] was 8 µg/mL; in experiment [2] (setting [3]) it was 16 µg/mL.

For `Cl.NCCN1CCC(Nc2cc(C(F)(F)F)cc3c2Nc2ccc(N4CC5CCC4C5)cc2S3)CC1` (stereo not drawn) [compound 327, N-(1-(2-aminoethyl)piperidin-4-yl)-7-(2-azabicyclo [2.2.1]heptan-2-yl)-3-(trifluoromethyl)-10H-phenothiazin-1-amine hydrochloride], the minimal inhibitory concentration (MIC) was found to be 1 µg/mL in experiment [1] and 4 µg/mL in experiment [2] (setting [3]).

In the case of `CC(=O)Nc1cc(C(F)(F)F)cc2c1Nc1ccc(N3CCCC3)cc1S2.Cl` [compound 328, N-(7-(pyrrolidin-1-yl)-3-(trifluoromethyl)-10H-phenothiazin-1-yl)acetamide hydrochloride], the MIC was 16 µg/mL in experiment [1] and greater than 128 µg/mL in experiment [2] (setting [3]).

Consider `Cc1cc(NC2CCN(CCN)CC2)c2c(c1)Sc1cc(Br)ccc1N2.Cl` [compound 329, N-(1-(2-aminoethyl)piperidin-4-yl)-7-bromo-3-methyl-10H-phenothiazin-1-amine hydrochloride], for which the MIC in experiment [1] amounted to 16 µg/mL; in experiment [2] (setting [3]), 64 µg/mL.

In the case of `Cl.FC(F)(F)c1cc(NC2CCN(CCN3CCNCC3)CC2)c2c(c1)Sc1cc(N3CCCC3)ccc1N2` [compound 330, N-(1-(2-(piperazin-1-yl)ethyl)piperidin-4-yl)-7-(pyrrolidin-1-yl)-3-(trifluoromethyl)-10H-phenothiazin-1-amine hydrochloride], the MIC in experiment [1] was 128 µg/mL; in experiment [2] (setting [4]) it was greater than 128 µg/mL.

As to `Cl.NCCCNc1cc(C(F)(F)F)cc2c1Nc1ccc(Br)cc1S2` [compound 333, N1-(7-bromo-3-(trifluoromethyl)-10H-phenothiazin-1-yl)propane-1,3-diamine hydrochloride], the MIC worked out at 8 µg/mL in experiment [1] and 16 µg/mL in experiment [2] (setting [3]).

For the compound `CN(C)c1ccc2c(c1)Sc1cc(C(F)(F)F)cc(NC3CCN(CCN)CC3)c1N2.Cl` [compound 334], the MIC in experiment [1] came out at 4 µg/mL; in experiment [2] (setting [3]) it was 16 µg/mL.

In the case of `Cl.Cl.NCCN(CCN)CCN1CCC(Nc2cc(C(F)(F)F)cc3c2Nc2ccc(N4CCCC4)cc2S3)CC1` [compound 335, N1-(2-aminoethyl)-N1-(2-(4-((7-(pyrrolidin-1-yl)-3-(trifluoromethyl)-10H-phenothiazin-1-yl)amino)piperidin-1-yl)ethyl)ethane-1,2-diamine hydrochloride], the MIC in experiment [1] worked out at 4 µg/mL; in experiment [2] (setting [3]), 64 µg/mL.

In the case of `Cl.NCCN1CCC(Nc2cc(C(F)(F)F)cc3c2Nc2ccc(N4CCC(C(N)=O)C4)cc2S3)CC1` (stereo not drawn) [compound 338, 1-(9-((1-(2-aminoethyl)piperidin-4-yl)amino)-7-(trifluoromethyl)-10H-phenothiazin-3-yl)pyrrolidine-3-carboxamide hydrochloride], the MIC came to 4 µg/mL in experiment [1] and 64 µg/mL in experiment [2] (setting [3]).

As to `CCN(C)c1ccc2c(c1)Sc1cc(C(F)(F)F)cc(NC3CCN(CCN)CC3)c1N2.Cl.Cl` [compound 339, N1-(1-(2-aminoethyl)piperidin-4-yl)-N7-ethyl-N7-methyl-3-(trifluoromethyl)-10H-phenothiazine-1,7-diamine hydrochloride], the MIC came out at 4 µg/mL in experiment [1] and 8 µg/mL in experiment [2] (setting [3]).

`Cl.NCCN1CCC(Nc2cc(C(F)(F)F)cc3c2Nc2ccc(N4CCC5CCCC54)cc2S3)CC1` (stereo not drawn) [compound 340, N-(1-(2-aminoethyl)piperidin-4-yl)-7-(hexahydro-cyclopenta[b]pyrrol-1(2H)-yl)-3-(trifluoromethyl)-10H-phenothiazin-1-amine hydrochloride]: the MIC was found to be 4 µg/mL in experiment [1] and 16 µg/mL in experiment [2] (setting [3]).

Take `CC1CC(C)N(c2ccc3c(c2)Sc2cc(C(F)(F)F)cc(NC4CCN(CCN)CC4)c2N3)C1.Cl.Cl` (stereo not drawn) [compound 341, N-(1-(2-aminoethyl)piperidin-4-yl)-7-(2,4-dimethyl-pyrrolidin-1-yl)-3-(trifluoromethyl)-10H-phenothiazin-1-amine hydrochloride]: the MIC in experiment [1] came out at 1 µg/mL; in experiment [2] (setting [3]), 8 µg/mL.

Take `Cl.NC1CCCC(CNc2cc(C(F)(F)F)cc3c2Nc2ccc(Br)cc2S3)C1` (stereo not drawn) [compound 343, N-((3-aminocyclohexyl)methyl)-7-bromo-3-(trifluoromethyl)-10H-phenothiazin-1-amine hydrochloride]: the minimum inhibitory concentration (MIC) in experiment [1] was 16 µg/mL; in experiment [2] (setting [3]), 64 µg/mL.

`Cl.NCCOCCCNc1cc(C(F)(F)F)cc2c1Nc1ccc(Br)cc1S2` [compound 344, N-(3-(2-aminoethoxy)propyl)-7-bromo-3-(trifluoromethyl)-10H-phenothiazin-1-amine hydrochloride]: the MIC in experiment [1] turned out to be 8 µg/mL; in experiment [2] (setting [3]), 16 µg/mL.

Turning to `Cl.NCCNCCCNc1cc(C(F)(F)F)cc2c1Nc1ccc(N3CCCC3)cc1S2` [compound 345, N1-(2-aminoethyl)-N3-(7-(pyrrolidin-1-yl)-3-(trifluoromethyl)-10H-phenothiazin-1-yl)propane-1,3-diamine hydrochloride], the figures for the MIC in experiment [1] and in experiment [2] (setting [3]) were 4 µg/mL and 32 µg/mL, respectively.

As to `CC1CC(C)CN(c2ccc3c(c2)Sc2cc(C(F)(F)F)cc(NCCCNCCN)c2N3)C1.Cl` (stereo not drawn) [compound 346, N1-(2-aminoethyl)-N3-(7-(3,5-dimethylpiperidin-1-yl)-3-(trifluoromethyl)-10H-phenothiazin-1-yl) propane-1,3-diamine hydrochloride], the MIC in experiment [1] was 4 µg/mL; in experiment [2] (setting [3]) it was 16 µg/mL.

On to `Cl.NCCNCCCNc1cc(C(F)(F)F)cc2c1Nc1ccc(N3CC4(CCC4)C3)cc1S2` [compound 347, N1-(7-(2-azaspiro[3.3]heptan-2-yl)-3-(trifluoromethyl)-10H-phenothiazin-1-yl)-N3-(2-aminoethyl) propane-1,3-diamine hydrochloride], for which the MIC in experiment [1] came to 4 µg/mL; in experiment [2] (setting [3]) it was 8 µg/mL.
